Patent US5556857A, “Disturbance-of-consciousness improving agent” (priority 1991, dated 1996)
Like-named read-outs stand apart in the source and are kept apart here.

Columns and labels:
[1] = test system: sigma receptors; conditions: cited from earlier work
[2] = literature (Brain and Nerve, 39:983-990, 1987); cited from earlier work
[3] = literature; cited from earlier work
[4] = test system: sigma receptor; experiment: Antagonistic experiment with sigma receptor antagonists on the disturbance-of-consciousness improving effect; format: in vivo; conditions: 10 mg/kg, alone
Procedure: Antagonistic experiment with sigma receptor antagonists
Whether the improving effect of sigma receptor agonists on impaired consciousness is due to their effect on specific receptors was investigated using test compounds 14 and 15 which are sigma receptor antagonists. […] Similarly, the disturbance-of-consciousness improving effect of test compounds 10 and 12 was inhibited by 30 mg of another sigma receptor antagonist test compound 15.

[5] = test system: mouse model of coma following head injury; experiment: Evaluation of disturbance-of-consciousness improving effect in a mouse model of coma following head injury; format: in vivo; conditions: Oral, 30 mg/kg
[6] = molecular target: sigma receptor; experiment: Binding affinity for the sigma receptor ([3H]-DTG binding test); design: species or system Wistar strain male rat; conditions: [3H]-DTG 3 nM, rat whole brain membrane, 25° C., 60 minutes; ± SED; read-out: Inhibitory activity IC50
Procedure: Binding affinity for the sigma receptor
A membrane fraction was prepared and a [^3 H]-1,3-di[2-tolyl]guanidine (DTG) binding test was performed, both by the method of Wettstein et al. [Wettstein, J. F., Romman, F. J., Rocher, M. N. and Junien, J. L., Psychopharmacology, 104, 157-163 (1991)]. Thus, a Wistar strain male rat was decapitated and the whole brain was excised and homogenized in 30 volumes of ice-cooled 50 mM Tris hydrochloride buffer (pH 7.4). The homogenate was then centrifuged at 4° C. and 50,000 g for 15 minutes. The sediment obtained was suspended in one volume of the same buffer as mentioned above and, after 45 minutes of incubation at 37° C., the suspension was centrifuged again. The sediment obtained was suspended in one volume of the same buffer and the suspension was stored frozen at -80° C. until use.
The binding experiment was performed as follows. […]
The filter was transferred to a vial and after addition of 5 ml of a liquid scintillation cocktail (Aquasol 2), the vial was allowed to stand in the dark for a predetermined time. The radioactivity was then measured using a scintillation counter. The amount of specific binding was determined by subtracting the binding amount in the presence of 10 μM haloperidol from the total binding amount. The IC50 values were calculated by computer analysis using the nonlinear least squares method.

Compound: O=C(CCCN1CCC(O)(c2ccc(Cl)cc2)CC1)c1ccc(F)cc1 [haloperidol]
- affinity for sigma receptors [1]: have affinities for these receptors
- effect on impaired consciousness [2]: delays recovery from coma
- side effects [3]: dystonia

Compound: CN[C@@H](C)Cc1ccccc1 [methamphetamine]
- effect on impaired consciousness [2]: improves impaired consciousness
- side effects [3]: may produce an addictive behavior as well as schizophrenic responses such as hallucinations and delusion

Compound: CC(=O)OCC[N+](C)(C)C [acetylcholine]
- side effects [3]: serious side effects

Compound: c1ccc(C2(N3CCCCC3)CCCCC2)cc1 [phencyclidine]
- affinity for sigma receptors ([1]; literature): having an affinity for sigma receptors
- side effects [3]: induces schizophrenic responses such as hallucinations and delusion

Compound: CC[C@@H](CO)NC(=O)[C@@H]1C=C2c3cccc4c3c(cn4C)C[C@H]2N(C)C1 [methysergide]
- effect on impaired consciousness [2]: improves impaired consciousness

Compound: COc1cccc2c1CCC(=O)N2CCCN1CCN(c2cccc(Cl)c2)CC1.Cl [Test compound 1, 1-{3-[4-(3-Chlorophenyl)-1-piperazinyl]propyl}-5-methoxy-3,4-dihydrocarbostyril hydrochloride]
- RR time [4]: 32 % control
- SM time [4]: 38 % control
- RR time (time to recovery of righting reflex) [5]: 20 % of control
- SM time (time to recovery of spontaneous mobility) [5]: 20 % of control
- IC50 [6]: 340 ± 110 nM

Compound: CNC(=O)Oc1ccc2c(c1)[C@]1(C)CCN(C)[C@@H]1N2C [physostigmine]
- effect on impaired consciousness [2]: effective in improving disturbances of consciousness at low non-toxic doses

Compound: COc1cccc(N2CCN(CCCN3C(=O)CCc4c(Cl)cccc43)CC2)c1 [Example 2]
- RR time (time to recovery of righting reflex) [5]: 28 % of control
- SM time (time to recovery of spontaneous mobility) [5]: 28 % of control
- IC50 [6]: 130 ± 16 nM
